For experiment [1], the target named is T1, Recombinant human HDAC8 (Homo sapiens, UniProt Q9BY41).
T1 construct: purchased Enzo Life Sciences BML-SE145-0100
T1 sequence (Q9BY41 1-377): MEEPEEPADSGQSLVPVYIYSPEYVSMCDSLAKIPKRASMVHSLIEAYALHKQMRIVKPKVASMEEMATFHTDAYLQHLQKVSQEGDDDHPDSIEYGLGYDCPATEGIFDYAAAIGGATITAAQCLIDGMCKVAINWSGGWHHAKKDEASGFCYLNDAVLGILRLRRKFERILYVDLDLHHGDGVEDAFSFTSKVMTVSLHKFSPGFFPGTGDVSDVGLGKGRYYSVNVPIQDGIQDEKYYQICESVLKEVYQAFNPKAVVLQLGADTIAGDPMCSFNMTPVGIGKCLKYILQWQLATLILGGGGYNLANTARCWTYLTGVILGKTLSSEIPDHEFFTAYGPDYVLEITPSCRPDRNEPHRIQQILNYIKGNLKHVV
As to the kind of experiment: Human HDAC enzyme inhibitor Fluor-de-Lys assay, HDAC8. The experiment is classed as biochemical. Conditions: recombinant human HDAC8, Fluor-de-Lys assay.

Experiment [2] concerns the target T2, Recombinant human HDAC2 (Homo sapiens, UniProt Q92769).
T2 construct: Full length human HDAC2-FLAG was expressed in baculovirus infected Sf9 cells; FLAG (C); made in house; host or cells: Sf9 (baculovirus)
The experiment can be described thus: Human HDAC enzyme inhibitor Fluor-de-Lys assay, HDAC2. The experiment is classed as biochemical. The settings on record: recombinant human HDAC2, Fluor-de-Lys assay. The gist of the method:
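Fluor-de-Lys format at room temperature (23° C.): compounds titrated 10-point, 1:3, preincubated with HDAC before substrate addition. Developer with excess HDAC inhibitor ends the reaction, and trypsin-liberated AMC fluorescence is the read-out.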

Experiment [3] deals with T3, Recombinant human HDAC3/SMRT heterodimer (Homo sapiens, UniProt O15379).
T3 construct: FLAG (C); made in house
T3 sequence (O15379 whole entry): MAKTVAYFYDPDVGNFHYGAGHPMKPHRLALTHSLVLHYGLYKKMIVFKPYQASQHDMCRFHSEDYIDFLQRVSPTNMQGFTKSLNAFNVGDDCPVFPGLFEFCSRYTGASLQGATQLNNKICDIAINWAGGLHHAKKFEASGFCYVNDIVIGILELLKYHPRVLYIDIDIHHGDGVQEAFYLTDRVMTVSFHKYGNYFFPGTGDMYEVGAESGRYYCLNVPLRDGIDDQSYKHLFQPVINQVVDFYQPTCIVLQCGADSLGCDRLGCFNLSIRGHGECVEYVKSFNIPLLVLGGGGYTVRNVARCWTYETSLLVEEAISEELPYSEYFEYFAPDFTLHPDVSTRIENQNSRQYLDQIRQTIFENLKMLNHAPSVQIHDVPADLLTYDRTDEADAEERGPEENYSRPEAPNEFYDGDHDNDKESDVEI
T3 sequence (Q9Y618 1-899 partner limits assumed): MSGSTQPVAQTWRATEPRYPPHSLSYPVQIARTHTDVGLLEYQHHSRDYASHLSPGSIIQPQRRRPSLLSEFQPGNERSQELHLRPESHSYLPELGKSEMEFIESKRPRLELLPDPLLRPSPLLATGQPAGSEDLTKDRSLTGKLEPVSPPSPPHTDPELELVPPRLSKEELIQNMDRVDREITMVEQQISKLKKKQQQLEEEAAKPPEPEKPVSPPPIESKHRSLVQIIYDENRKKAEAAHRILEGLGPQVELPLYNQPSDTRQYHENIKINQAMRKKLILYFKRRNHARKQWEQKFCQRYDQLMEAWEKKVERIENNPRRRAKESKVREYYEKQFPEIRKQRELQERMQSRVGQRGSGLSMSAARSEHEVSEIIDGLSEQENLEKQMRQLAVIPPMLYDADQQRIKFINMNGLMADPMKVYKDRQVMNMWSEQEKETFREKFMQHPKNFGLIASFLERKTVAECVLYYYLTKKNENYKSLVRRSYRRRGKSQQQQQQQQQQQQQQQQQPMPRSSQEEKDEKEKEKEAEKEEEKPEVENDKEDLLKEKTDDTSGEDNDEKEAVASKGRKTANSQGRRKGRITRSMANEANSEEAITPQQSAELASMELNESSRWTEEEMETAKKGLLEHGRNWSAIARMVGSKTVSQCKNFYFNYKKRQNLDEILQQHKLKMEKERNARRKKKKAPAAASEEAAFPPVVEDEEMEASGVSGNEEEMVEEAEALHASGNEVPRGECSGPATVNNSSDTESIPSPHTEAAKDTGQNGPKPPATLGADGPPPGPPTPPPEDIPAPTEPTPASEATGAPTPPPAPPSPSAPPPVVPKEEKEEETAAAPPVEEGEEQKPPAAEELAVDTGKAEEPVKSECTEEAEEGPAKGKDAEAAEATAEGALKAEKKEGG
The experiment can be described thus: Human HDAC enzyme inhibitor Fluor-de-Lys assay, HDAC3/SMRT. The experiment is classed as biochemical. The settings on record: recombinant human HDAC3/SMRT, Fluor-de-Lys assay.

For experiment [4], the system named is KARN cells (Jurkat 2C4). As to the kind of experiment: cells. The experiment is classed as cell-based. The settings on record: Homo sapiens, Jurkat, luciferase induction, 100% = 2 μM SAHA. In a few lines:
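Jurkat 2C4 (KARN) cells dosed with test compounds up to 40 μM final, 0.4% DMSO, overnight at 5% CO2; luciferase read by Steady-Glo luminescence after 10 min at room temperature. DMSO set as 0% and 2 μM SAHA as 100% induction; 4-parameter fit of percent activation.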

The mark [5] stands for this setting: read-out: Karn EC50 (nM) 0.1% NHS, 0.1% normal human serum.
The mark [6] stands for this setting: read-out: Karn EC50 (nM) 5% NHS, 5% normal human serum.

Read-outs that look alike come from different tables or passages of the source.

T2 sequence (Q92769 whole entry): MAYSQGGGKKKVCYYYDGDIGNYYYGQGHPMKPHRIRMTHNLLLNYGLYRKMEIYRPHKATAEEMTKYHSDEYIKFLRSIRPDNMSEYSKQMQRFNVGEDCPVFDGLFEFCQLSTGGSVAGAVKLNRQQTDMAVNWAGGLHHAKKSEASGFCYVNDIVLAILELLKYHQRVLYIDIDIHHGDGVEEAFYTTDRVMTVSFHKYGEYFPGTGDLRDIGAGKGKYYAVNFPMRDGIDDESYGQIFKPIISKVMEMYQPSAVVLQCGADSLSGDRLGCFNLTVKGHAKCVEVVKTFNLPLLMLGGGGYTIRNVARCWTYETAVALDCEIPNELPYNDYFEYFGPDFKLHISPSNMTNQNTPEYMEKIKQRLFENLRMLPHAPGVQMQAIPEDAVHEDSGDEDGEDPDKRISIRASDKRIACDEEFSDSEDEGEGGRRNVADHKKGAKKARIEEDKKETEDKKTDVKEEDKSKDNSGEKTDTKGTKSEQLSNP

As for `CCC(=O)CCCCC[C@H](NC(=O)[C@H]1CC12CCN(C)CC2)c1ncc(-c2cc3ccc(N(C)C)nc3cc2OC)o1` [Compound 406], the IC50 (commonly the midpoint of a concentration-inhibition curve) in experiment [1] came to 300 nM; in experiment [2], 2.5 nM; in experiment [3] it was 1.05 nM. Moreover, the figures for the EC50 in experiment [4] (setting [5]) and in experiment [4] (setting [6]) were 280 nM and 279 nM, respectively.

For the compound `CCC(=O)CCCCC[C@H](NC(=O)[C@H]1CC12CCN(C)CC2)c1ncc(-c2cc3ocnc3cc2OC)o1` [Compound 408], the results for the IC50 in experiment [1], in experiment [2] and in experiment [3] were above 900 nM, 36.1 nM and 7.37 nM, respectively. The EC50 (usually the midpoint of the concentration-response curve) in experiment [4] (setting [5]) is 250 nM; in experiment [4] (setting [6]) it was 593 nM.

For `CCC(=O)CCCCCC(N)(COC)c1ncc(-c2cc3ccc(C)nc3cc2OC)[nH]1` (stereo not shown) [Compound 414, 9-amino-10-methoxy-9-[5-(7-methoxy-2-methylquinolin-6-yl)-1H-imidazol-2-yl]decan-3-one], the IC50 in experiment [1], in experiment [2] and in experiment [3] was above 900 nM each time. The EC50 in experiment [4] (setting [5]) and in experiment [4] (setting [6]) was above 40000 nM throughout.

Consider `CCC(=O)CCCCC[C@H](NC(=O)C1=NOC2(CCN(C)CC2)C1)c1ncc(-c2cc3ccncc3cc2OC)o1` [Compound 415], for which the IC50 in experiment [1] is above 900 nM; in experiment [2], 33.1 nM; in experiment [3], 7.82 nM. Further, the results for the EC50 in experiment [4] (setting [5]) and in experiment [4] (setting [6]) were 105 nM and 118 nM, respectively.

Turning to `CCCC(=O)CCCCC[C@H](NC(=O)[C@H]1CC12CCN(CC1CC1)CC2)c1ncc(-c2cc3ccc(C)nc3cc2OC)[nH]1` [Compound 416], the IC50 in experiment [1] is above 900 nM; in experiment [2], 4.5 nM; in experiment [3], 1.11 nM. The EC50 is 11 nM in experiment [4] (setting [5]) and 15 nM in experiment [4] (setting [6]).

On to `CCC(=O)CCCCCC(CC)(NC(=O)[C@H]1CC12CCN(CC1CC1)CC2)c1nc(-c2cc3ccc(C)nc3cc2OC)c[nH]1` (stereo partly drawn) [Compound 420, (1S)-6-(cyclopropylmethyl)-N-{3-[4-(7-methoxy-2-methylquinolin-6-yl)-1H-imidazol-2-yl]-9-oxoundecan-3-yl}-6-azaspiro[2.5]octane-1-carboxamide], for which the IC50 in experiment [1] is above 900 nM; in experiment [2] it was 330 nM; in experiment [3], 328 nM. Further, the EC50 was 11800 nM in experiment [4] (setting [5]) and above 40000 nM in experiment [4] (setting [6]).

Take `CCC(=O)CCCCC[C@H](NC(=O)[C@H]1CC12CCN(CC1CC1)CC2)c1ncc(-c2cc3ccc(C)nc3cc2OC)o1` [Compound 422]: the IC50 in experiment [1] is above 900 nM; in experiment [2] it was 0.7 nM; in experiment [3], 0.08 nM. Besides, the EC50 in experiment [4] (setting [5]) is 15 nM; in experiment [4] (setting [6]), 10 nM.

`CCCC(=O)CCCCC[C@H](N)c1ncc(-c2cc3ccc(C)nc3cc2OC)[nH]1` [Compound A30]: the IC50 in experiment [1] was found to be 542 nM; in experiment [2], 304 nM; in experiment [3], 95.6 nM. Further, the EC50 in experiment [4] (setting [5]) amounted to 1490 nM; in experiment [4] (setting [6]), 5610 nM.

The values are drawn from patent publication US12590099B2, “Inhibitors of histone deacetylase useful for the treatment or prevention of HIV infection” (Merck Sharp & Dohme LLC, priority 2018, dated 2026).
